Laboratory results from US20220273588A1, “MONOAMINE OXIDASE B INHIBITORS FOR USE IN THE PREVENTION OR TREATMENT OF PROSTATE CARCINOMA” (TOXIE EUROPE INTELLIGENS KÉMIAI SZENZOROKAT KUTATÓ, …, priority 2019, published 2022).

Experiments:
[1] = test system: LNCaP cells; test: MTS reduction viability assay on LNCaP cells; format: cell-based, human; conditions: MTS method
Description: (§1) RPMI-1640 (Lonza) medium with 10% heat-inactivated FBS (fetal bovine serum, Sigma) and 100 U/ml Penicillin/Streptomycin was used to grow the cells. Cells were treated with drugs freshly dissolved in RPMI medium. Treatment concentrations were determined by widening the concentration range. After 48 h of treatment, cell viability was also quantified using the MTS reduction assay (Promega) as well as a CellTiter-Glo kit (Promega) based on ATP level measurements.
In the MTS reduction method (CellTiter 96® AQueous One Solution Cell Proliferation Assay, Promega Corp, Madison, […].), 20 microliters of MTS reagent was used per sample according to the manufacturer's protocol, and after 120 minutes of incubation, absorbance was measured at 492 nm with a microplate reader.
In the studies, we modified the protocol of Gordon et al (2014) as follows: • A volume of 20 microliters per well was used from the MTS reagent as recommended by the manufacturer (10 microliters were used by Grodon et al.). • In our case, an incubation time of 120 min was used to increase accuracy (Gordon et al incubated for 60 min). […] During validation, measurements were performed with a given number of cells per well, and absorbance values were plotted as a function of cell number. A calibration line was placed on the data points by linear regression analysis and the R^2 coefficient of determination was determined. […]

[2] = test system: LNCaP cells; test: CellTiter-Glo (ATP level) viability assay on LNCaP cells; format: cell-based, human; conditions: for viability of LNCaP cells, summary of the study: concentration-dependent manner, 48 h; for viability of LNCaP cells: 48 hours of treatment
Description: as §1
(§2) The CellTiter-Glo assay based on ATP level measurements was performed according to the manufacturer's protocol of pipetting 100 microliters of Celliter-Glo reagent into wells containing 100 microliters of medium, then shaking for 2 minutes and incubating for another 10 minutes. The luminescence signal was then detected with a PerkinElmer AlphaLisa instrument.
To reproduce the literature data, we also used the unpaired t-test also used by Gordon et al (2014) to compare control and treated groups. […] For some results (LNCaP chlororlin MTS method and LNCaP rasagiline and selegiline CellTiter-Glo method) Kruskal-Wallis non-parametric one-way ANOVA method was used with Dunn test, while in other cases one-way ANOVA method was used with Bonferroni post hoc test.
(§3) In our experiments, we performed three parallel experiments, and the experiments were repeated to increase the number of items. For the statistical analysis of two separate experiments the results were pooled, however, the absolute values obtained during the luminescence measurements cannot be used to combine the results. This is because the CellTiter-Glo reagent loses its activity during storage and possible thaw-freeze cycles. Thus, a CellTiter-Glo reagent from a single source can give different relative luminescence values (RLUs) at the same cell number in two different experiments performed at different times. However, in one experiment, the RLU reliably gives the cell number, and accordingly, the percentage viability value of the treated condition relative to the control RLU can be determined with certainty; values from different experimental series can be combined.
(§4) During the evaluation, we normalized to the mean of the control of the given experiment, so the mean of the control was 100% and the percentage of each individual data point relative to the mean of the control was calculated accordingly. One-way ANOVA with Bonferroni post hoc test with p<0.05 significance level was used for statistical validation of viability changes as described above.

[3] = test system: PC3 cells; test: CellTiter-Glo (ATP level) viability assay on PC3 cells; format: cell-based, human; conditions: 48 h; for viability of PC3 cells: CellTiter-Glo; for viability of PC3 cells, summary of the study: concentration-dependent manner
Description: as §1, §2
To support the applicability of the CellTiter-Glo viability assay method, we validated the method on a PC3 cell line. In this procedure, the measurement was performed with a given number of living cells per well, and the relative luminescence values obtained were plotted as a function of the cell number. A calibration line was placed on the data points by linear regression analysis, and based on the R2 value, it was determined that the relative luminescence value obtained during the measurement was directly proportional to the number of living cells (FIG. 1/C).
as §3, §4

[4] = test system: human PC3 xenograft; test: Tumor growth in NSG SCID mouse human PC3 xenograft model; format: in vivo; conditions: 10 mg/kg i.p. once daily from day 14, day 21
Excerpt: For our experiments, we used 25 3-month-old male NOD (Non Obese Diabetic) SCID (Severe Combined ImmunoDeficiency) Gamma mice (National Institute of Oncology Animal House). Immunodeficiency in these mice (Shultz et al, 1995) is associated with decreased T and B lymphocyte and NK cell function, as well as deficiency is developed in cytokine signaling pathways, in adaptive and innate immune systems. During the experiment, the animals were housed in the animal house of the János Szentágothai Research Center of the University of Pecs, and they were provided with standard rodent food and tap water ad libitum. The animals were kept at 20-24° C., 50-60% relative humidity, in a 12-12 hour dark-light cycle. […]
RPMI-1640 (Lonza) medium with 10% heat-inactivated FBS (Sigma) and 100 U/ml Penicillin/Streptomycin was used to proliferate the PC3 cell line (Wesel, Germany), which was also used for in vitro experiments. […] Cell counts were determined after trypan blue staining with a LUNA II automated cell counter (Logos Biosystems) and 50 million cells were resuspended in 5 ml PBS. […]
On days 4, 7, 11, 14, 18, and 21 of the experiment, the length (a) and width (b) of the growing tumor were measured with a caliper, and then the tumor volume was calculated using the following formula (J B Wu et al., J Clin Invest., 124, 2891-2908): […]

[5] = test system: androgen-sensitive and castration-resistant human prostate cells; conditions: literature preclinical study; cited from earlier work
[6] = test system: PC3 prostate carcinoma cell line; test: CellTiter-Glo viability assay on PC3 cells, selegiline, docetaxel and combinations; format: cell-based, human; conditions: 48 hours
Description: In our studies, we used a […] PC3 prostate carcinoma cell line. The culture of the cell line and the study of the effect of the combination of docetaxel and selegiline were performed as previously described, with the changes detailed below.
Selegiline, docetaxel, and selegiline+docetaxel combination studies were performed in parallel, simultaneously, with the same reagents, on a cell population from the same cell culture. For the selegiline, docetaxel and selegiline+docetaxel combination studies, the following changes were applied from the protocol according to the examples of the application: • Treatments with selegiline alone were performed at concentrations ranging from 250 μM to 1 mM (250 μM, 500 μM, 750 μM, 1 mM), while docetaxel alone was administered at a concentration of 1 μM. For combination treatments, 1 μM docetaxel was added to the concentrations corresponding to the selegiline treatments (250 μM selegiline+1 μM docetaxel, 500 μM selegiline+1 μM docetaxel, 750 μM selegiline+1 μM docetaxel, 1 mM selegiline+1 μM docetaxel). • For docetaxel and combination treatments, a 0.01% dimethyl sulfoxide (DMSO) solution prepared with complete RPMI medium (10% FBS, 100 U/ml Penicillin/Streptomycin; solution for culturing and treating PC3 cells) was used as a control. This was used as a solvent control, corresponding to the use of DMSO to prepare a 10 mM docetaxel stock solution. Thus, the 1 μM docetaxel treatments we used also contained 0.01% DMSO. • The change in cell viability induced by selegiline, docetaxel, and combinations thereof was measured after 48 hours with the CellTiter-Glo kit as previously described. • The experiments were performed in 3 different series, and for evaluation they were combined with the previously described normalization. Briefly, during the evaluation, we normalized to the mean of the untreated control in the given experiment, so the mean of the control was 100% and the percentage of each individual data point relative to the mean of the control was calculated accordingly. Because treatments with selegiline and docetaxel alone or in combination were performed in one experiment, we normalized to the mean of the untreated control without DMSO. […] A Shapiro-Wilk and Kolmogorov-Smirnov normality test was performed on the data set, followed by a one-way ANOVA test with a Holm-Sidak's multiple comparison test.

[7] = test system: metastatic castration-resistant disease; conditions: patients; cited from earlier work

SMILES	viability of LNCaP cells, summary of the study [2]	viability of PC3 cells ([3]; 1 mM)	viability of PC3 cells, summary of the study [3]	rate of tumor growth compared to the group treated with physiological saline [4]	growth and proliferation of androgen-sensitive and castration-resistant human prostate cells [5]	viability of LNCaP cells ([2]; 1 mM, CellTiter-Glo)	viability of LNCaP cells ([2]; 10 mM, CellTiter-Glo)	viability of PC3 cells ([3]; 10 mM)	other results
C#CCN(C)CCCOc1ccc(Cl)cc1Cl [clorgylin]	significantly reduced	significantly reduced	significantly reduced	significantly reduced	inhibited	–	–	–	viability of LNCaP cells ([1]; 100 micromolar, 48 h of treatment): significantly reduced; viability of LNCaP cells, concentration dependence ([1]; 48 h): concentration-dependent manner; viability of LNCaP cells, CellTiter-Glo compared with MTS method ([2]; 48 h clorgylin treatment, CellTiter-Glo): results similar to the MTS method; viability of PC3 cells ([3]; 100 micromolar): significantly reduced; growth of enzalutamide-resistant cells [5]: significantly reduced
CC(=O)O[C@@]12CO[C@@H]1C[C@H](O)[C@@]1(C)C(=O)[C@H](O)C3=C(C)[C@@H](OC(=O)[C@H](O)[C@@H](NC(=O)OC(C)(C)C)c4ccccc4)C[C@@](O)([C@@H](OC(=O)c4ccccc4)[C@H]21)C3(C)C [docetaxel]	–	–	–	–	–	–	–	–	cell viability compared to the DMSO control ([6]; 1 μM): significantly reduced cell viability; increase of overall survival, average [7]: 2-3 months
NNCCc1ccccc1 [phenelzine]	–	–	–	–	inhibited	–	–	–	–
C#CCN[C@@H]1CCc2ccccc21 [rasagiline]	significantly reduced	significant viability-reducing effect	significantly reduced	–	–	trend is also clearly observed	significant viability-reducing effect	significant viability-reducing effect	–
C#CCN(C)[C@H](C)Cc1ccccc1 [selegiline]	significantly reduced	significant viability-reducing effect	significantly reduced	significantly reduced	–	trend is also clearly observed	significant viability-reducing effect	significant viability-reducing effect	viability of PC3 cells, concentration dependence ([6]; 250 μM to 1 mM): concentration-dependent manner; viability of PC3 cells ([6]; 750 μM, Example 3 series): significant decrease in viability; viability of PC3 cells, effect of Example 1 ([6]; 1 mM, Example 3 series): reproduced
